Data on 11 molecules can be found in patent US7858613B2, “Substituted benzo-condensed cycloheptanone derivatives and their use for producing drugs” (Gruenenthal GmbH, priority 2005, dated 2010).

Each structure is given as a SMILES string.

One assay addresses T1, human CB2 receptor (Homo sapiens, UniProt P34972).
T1 construct: expressed in transfected cells; host or cells: HEK-293EBNA cells (membranes)
The experiment in a line: Affinity for cannabinoid receptor CB2, [3H]-CP 55,940 displacement on HEK-293EBNA membranes. The settings on record: 10 μM test substance; 0.33 nM [3H]-CP 55,940; percent inhibition of specific binding. The source says:
VI. Determination of the Affinity for the Cannabinoid Receptor CB2 (CB2 Receptor):
To determine the affinity of the inventive compounds for the cannabinoid receptor, membranes from human recombinant HEK-293EBNA cells were used, which had been transfected stably with the human CB2 receptor. The radioligand used was tritium-labeled 5-(1,1-dimethylheptyl)-2-(5-hydroxypropyl)cyclohexyl)-1-alpha,2-beta,5-alpha)phenol ([3]H—CP 55,940 with 103.4 Ci/mmol, 1 mCi/ml). The determination was effected in a test buffer composed of 50 mM Tris-HCl, 2.5 mM EDTA, 5 mM MgCl2 and 1.0 mg/ml of fatty acid-free BSA. The test substances were each dissolved in DMSO.
The affinity of the inventive compounds for the CB2 receptor is determined by their ability to displace [3]H—CP 55,940 from CB2 receptors in membranes from HEK-293EBNA cells. To this end, in each case 8 μg of the membranes (20 μl of a solution from membranes in a concentration of 400 μg/ml) are incubated in wells on a microtiter plate with a 0.33 nM solution of ^[3]H-CP […] (120 Ci/mmol) in a total volume of test buffer of 200 μl at 30° C. for 90 minutes.
Subsequently, either the test substances or WIN 55212-2 to determine the unspecific binding, in each case dissolved in DMSO, are added to the wells so as to result in each case in a concentration of the corresponding substances of 10 μM.
Incubation at 30° C. is continued for a further 40 minutes. The binding reaction was ended by rapid filtration through GF/C filter paper which had been treated with 0.05% PEI using a Brandel cell harvester with 96 wells. The filters are washed nine times with 0.5 ml of ice-cooled washing buffer ([…] Tris-HCl, 5 mM MgCl2, 2.5 mM EDTA, 2% BSA, pH 7.4), air-dried and placed in scintillation fluid, and the radioactivity is determined with the aid of a scintillation counter.
The percentage displacement of the radioactive ligand ^[3]H-CP 55,940 from its binding to the CB2 receptor is reported as percent inhibition of the specific binding.

The target in a further assay is T2, vanilloid receptor (VR1) (Homo sapiens, UniProt Q8NER1).
T2 construct: expressed in transfected cells; host or cells: CHO K1 cells (ECACC)
In words: Functional study on vanilloid receptor (VR1), FLIPR Ca2+ assay in VR1-transfected CHO K1 cells. The settings on record: test substance 10 μM; CHO K1 cells transfected with VR1; suppression of Ca2+ current after 100 nM capsaicin; read-out: VR1 (human) (% inhibition compared to 10 μM CP). The assay is classed as cell-based. The source says:
II. Functional Studies on the Vanilloid Receptor (VR1)
The agonistic or antagonistic action of the substances to be tested on vanilloid receptor (VR1) can also be determined with the assay which follows. In this assay, the Ca^2+ current through the channel is quantified with the aid of a Ca^2+-sensitive dye (Fluo-4 type, Molecular Probes, Europe BV, Leiden, the Netherlands) in a fluorescent imaging plate reader (FLIPR, Molecular Devices, Sunnyvale, USA).
Chinese hamster ovary cells (CHO K1 cells, European Collection of Cell Cultures (ECACC) Great Britain) are transfected stably with the VR1 gene. For functional studies, these cells are plated out onto poly-D-lysine-coated black 96-well plates with a clear bottom (BD Biosciences, Heidelberg, Germany) in a density of 25 000 cells/well. The cells are incubated overnight at 37° C. and 5% CO2 in a culture medium (Ham's Nutrient Mixture F12, 10% by volume of FCS (fetal calf serum), 18 μg/ml of L-proline). The next day, the cells are incubated with Fluo-4 (Fluo-4 2 μM, Pluronic F127 0.01% by volume, Molecular Probes in HBSS (Hank's buffered saline solution), Gibco Invitrogen GmbH, Karlsruhe, Germany) at 37° C. for 30 minutes. Subsequently, the plates are washed 3 times with HBSS buffer and, after a further incubation of 15 minutes at room temperature, used for Ca^2+ measurement in FLIPR. The Ca^2+-dependent fluorescence is measured before and after addition of the substances to be studied (wavelength λex=488 nm, λem=540 nm). The quantification is effected by measuring the highest fluorescence intensity (FC, fluorescence counts) over the time.
The FLIPR protocol consists of 2 substance additions. First, the substances to be tested (10 μM) are pipetted onto the cells and the Ca^2+ current is compared with the control (capsaicin 10 μM) (% activation based on the Ca^2+ signal after addition of 10 μM capsaicin). After incubation for 5 minutes, 100 nM capsaicin is applied and the current of Ca^2+ is likewise determined.
Desensitizing agonists and antagonists led to a suppression of the Ca^2+ current. % inhibition is calculated compared to the maximum achievable inhibition with 10 μM capsazepine.

Assay [1] deals with T3, vanilloid receptor 1 (VR1/TRPV1) (Rattus norvegicus, UniProt O35433).
T3 construct: The spinal column is removed from beheaded rats; from tissue; host or cells: primary cells from rat dorsal root ganglia
In words: Functional study on vanilloid receptor 1 (VR1/TRPV1), FLIPR Ca2+ assay in rat dorsal root ganglia cells. The assay is classed as cell-based. The settings on record: test compound 10 μM, rat DRG cells; for inhibition at 10 µM: suppression of Ca2+ current after 100 nM capsaicin, read-out: VR1 (rat) (% inhibition compared to 10 μM CP). The method, then: Preference may likewise be given to inventive compounds which, in the FLIPR assay, in a concentration of 10 μM, have an inhibition of the Ca^2+ ion current in dorsal root ganglia of rats of at least 10%, preferably of at least 30%, more preferably of at least 50%, even more preferably of at least 70%, even more preferably of at least 90%, compared to the maximum achievable inhibition of the Ca^2+ ion current with […] in a concentration of 10 μM.
In the FLIPR assay, the Ca^2+ current is quantified with the aid of a Ca^2+-sensitive dye (Fluo-4 type, Molecular Probes Europe BV, Leiden, the Netherlands) in the fluorescent imaging plate reader (FLIPR, Molecular Devices, Sunnyvale, USA), as described below.
I. Functional Study on the Vanilloid Receptor 1 (VR1/TRPV1 Receptor)
The agonistic or antagonistic action of the substances to be studied on the vanilloid receptor 1 (VR1/TRPV1) of the rat species can be determined with the following assay. In this assay, the Ca^2+ current through the receptor channel is quantified with the aid of a Ca^2+-sensitive dye (Fluo-4 type, Molecular Probes Europe BV, Leiden the Netherlands) in a fluorescent imaging plate reader (FLIPR, Molecular Devices, Sunnyvale, USA).
Cell culture plate: poly-D-lysine-coated, black 96-hole plates with a clear bottom (96 well black/clear plate, BD Biosciences, Heidelberg, Germany) are additionally coated with laminin (Gibco Invitrogen GmbH, Karlsruhe, Germany) by diluting laminin to a concentration of 100 μg/ml with PBS (Ca—Mg-free PBS, Gibco Invitrogen GmbH, Karlsruhe, Germany). Aliquots having a concentration of 100 μg/ml of laminin are withdrawn and stored at −20° C. The aliquots are diluted with PBS in a ratio of 1:10 to 10 μg/ml of laminin and in each case 50 μl of the solution are pipetted into a well of the cell culture plate. The cell culture plates are incubated at 37° C. for at least two hours, the supernatant solution is removed by suction and the wells are each washed twice with PBS. The coated cell culture plates are stored with supernatant PBS which is not removed until directly before the application of the cells.
The spinal column is removed from beheaded rats and placed directly into cold HBSS buffer (Hank's buffered saline solution, Gibco Invitrogen GmbH, Karlsruhe, Germany), i.e. placed in an ice bath, which has been admixed with 1% by volume of an AA solution (antibiotic/antimycotic solution, PAA, Pasching, Austria). The spinal column is severed longitudinally and removed from the spinal canal together with fasciae. Subsequently, the dorsal root ganglia (DRGs) are removed and in turn stored in cold HBSS buffer admixed with 1% by volume of an AA solution. The DRGs freed completely of blood residues and spinal nerves are in each case transferred to 500 μl of cold type 2 collagenase (PAA, Pasching, Austria) and incubated at 37° C. for 35 minutes. After addition of 2.5% by volume of trypsin (PAA, Pasching, Austria), incubation is continued at 37° C. for a further 10 minutes. After complete incubation, the enzyme solution is cautiously pipetted off and the remaining DRGs are each admixed with 500 μl of complete medium.
The DRGs are each suspended repeatedly, drawn through cannulas No. 1, No. 12 and No. 16 by means of a syringe and transferred to 50 ml Falcon tubes which are made up to 15 ml with complete medium. The contents of each Falcon tube are in each case filtered through a 70 μm Falcon filter insert and centrifuged at 1200 revolutions and room temperature for 10 minutes. The resulting pellet is in each case taken up in 250 μl of complete medium and the cell count is determined.
The number of cells in the suspension is adjusted to 3 times 10^5 per ml and in each case 150 μl of this suspension are added to one well of the cell culture plates coated as described above. In the incubator, the plates are left to stand at 37° C., 5% by volume of CO2 and 95% relative air humidity for two to three days. […]

T3 sequence (O35433 whole entry): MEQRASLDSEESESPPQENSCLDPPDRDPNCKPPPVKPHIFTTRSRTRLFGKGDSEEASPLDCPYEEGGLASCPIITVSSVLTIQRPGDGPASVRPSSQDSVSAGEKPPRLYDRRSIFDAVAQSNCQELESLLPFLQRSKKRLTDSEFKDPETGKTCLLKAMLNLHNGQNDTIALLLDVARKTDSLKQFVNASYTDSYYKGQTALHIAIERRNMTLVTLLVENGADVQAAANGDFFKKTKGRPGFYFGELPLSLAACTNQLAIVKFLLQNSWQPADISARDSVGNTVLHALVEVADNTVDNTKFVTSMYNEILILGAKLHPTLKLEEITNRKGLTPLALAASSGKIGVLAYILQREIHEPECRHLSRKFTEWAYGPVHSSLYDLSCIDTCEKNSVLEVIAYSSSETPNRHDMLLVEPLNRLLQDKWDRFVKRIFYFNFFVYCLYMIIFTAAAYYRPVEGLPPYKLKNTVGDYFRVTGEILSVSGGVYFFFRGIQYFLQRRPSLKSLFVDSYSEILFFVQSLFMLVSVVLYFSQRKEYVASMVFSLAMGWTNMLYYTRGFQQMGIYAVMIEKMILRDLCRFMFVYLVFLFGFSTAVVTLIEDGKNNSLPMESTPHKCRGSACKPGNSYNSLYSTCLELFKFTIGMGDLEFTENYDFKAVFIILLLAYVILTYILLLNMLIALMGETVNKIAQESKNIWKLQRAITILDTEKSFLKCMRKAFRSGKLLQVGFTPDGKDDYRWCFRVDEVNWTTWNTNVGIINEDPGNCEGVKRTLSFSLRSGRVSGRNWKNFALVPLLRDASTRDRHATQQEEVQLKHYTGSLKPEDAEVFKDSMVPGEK
T2 sequence (Q8NER1 whole entry): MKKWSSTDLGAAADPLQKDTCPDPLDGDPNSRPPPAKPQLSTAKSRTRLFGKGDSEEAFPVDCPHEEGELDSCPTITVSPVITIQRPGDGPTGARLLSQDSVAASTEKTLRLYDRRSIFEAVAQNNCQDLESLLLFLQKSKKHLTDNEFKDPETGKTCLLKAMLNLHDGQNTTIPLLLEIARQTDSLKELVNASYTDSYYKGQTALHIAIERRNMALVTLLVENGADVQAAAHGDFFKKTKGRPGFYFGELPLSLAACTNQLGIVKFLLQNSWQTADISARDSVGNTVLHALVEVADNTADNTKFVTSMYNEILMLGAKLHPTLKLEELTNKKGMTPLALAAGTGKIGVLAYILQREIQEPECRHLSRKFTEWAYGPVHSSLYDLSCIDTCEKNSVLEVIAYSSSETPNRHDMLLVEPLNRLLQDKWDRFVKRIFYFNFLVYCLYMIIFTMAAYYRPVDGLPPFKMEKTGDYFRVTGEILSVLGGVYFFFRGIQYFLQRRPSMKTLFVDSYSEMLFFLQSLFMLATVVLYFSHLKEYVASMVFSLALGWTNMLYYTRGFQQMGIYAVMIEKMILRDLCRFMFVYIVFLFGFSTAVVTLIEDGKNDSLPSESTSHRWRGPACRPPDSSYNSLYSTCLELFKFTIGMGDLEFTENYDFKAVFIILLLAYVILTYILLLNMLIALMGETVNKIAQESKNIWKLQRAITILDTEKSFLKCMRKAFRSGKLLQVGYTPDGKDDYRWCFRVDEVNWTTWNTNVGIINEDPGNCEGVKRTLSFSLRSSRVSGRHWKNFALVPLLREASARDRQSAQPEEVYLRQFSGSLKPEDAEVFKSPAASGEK
T1 sequence (P34972 whole entry): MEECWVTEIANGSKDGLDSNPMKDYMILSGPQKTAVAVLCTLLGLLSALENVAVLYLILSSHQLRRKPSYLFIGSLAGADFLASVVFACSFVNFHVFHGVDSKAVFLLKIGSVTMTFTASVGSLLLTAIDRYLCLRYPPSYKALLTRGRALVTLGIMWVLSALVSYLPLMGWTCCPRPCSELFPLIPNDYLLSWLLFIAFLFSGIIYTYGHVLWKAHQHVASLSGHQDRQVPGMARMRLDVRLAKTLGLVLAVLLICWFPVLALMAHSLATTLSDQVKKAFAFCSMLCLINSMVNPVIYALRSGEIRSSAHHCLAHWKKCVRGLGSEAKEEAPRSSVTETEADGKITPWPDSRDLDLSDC

By inhibition is commonly meant the share of the control response that was lost under treatment. In the case of `CCCCCNC(=O)OCC1CCSc2ccccc2C1=O` (stereo not drawn) [Example Compound 1, Pentylcarbamic acid 5-oxo-2,3,4,5-tetrahydrobenzo[b]thiepin-4-ylmethyl ester], at human CB2 receptor, the inhibition at 10 µM came to 42.2%.

Regarding `O=C(Nc1ccc(Br)cc1)OCC1CCSc2ccccc2C1=O` (stereo not drawn) [Example Compound 5, (4-Bromophenyl)carbamic acid 5-oxo-2,3,4,5-tetrahydrobenzo[b]thiepin-4-ylmethyl ester], the inhibition at 10 µM on human CB2 receptor was 36.2%; on vanilloid receptor (VR1), 53.8%.

As to `O=C(NC1CCCCC1)OCC1(CO)CCSc2ccccc2C1=O` (stereo not drawn) [Example Compound 6, Cyclohexylcarbamic acid 4-hydroxymethyl-5-oxo-2,3,4,5-tetrahydro-benzo[b]thiepin-4-ylmethyl ester], the inhibition at 10 µM on human CB2 receptor came to 53.6%; on vanilloid receptor (VR1), 26.7%.

`O=C1c2ccccc2SCCC1(CO)COC(=S)Nc1ccccc1` (stereo not drawn) [Example Compound 9, Phenylthiocarbamic acid O-(4-hydroxymethyl-5-oxo-2,3,4,5-tetrahydro-benzo[b]thiepin-4-ylmethyl)ester]: the results for the inhibition at 10 µM (in assay [1]; at human CB2 receptor; on vanilloid receptor (VR1)) were 52.8%, 28.3% and 51.3%, respectively.

Turning to `CCCCCNC(=O)OCC1(COC(=O)NCCCCC)CCSc2ccccc2C1=O` [Example Compound 14, pentylcarbamic acid 4-(pentylcarbamoyloxymethyl)-5-oxo-2,3,4,5-tetrahydrobenzo[b]thiepin-4-ylmethyl ester], the inhibition at 10 µM on human CB2 receptor worked out at 61.8%.

Molecule `O=C(Nc1ccc(F)cc1F)OCC1(COC(=O)Nc2ccc(F)cc2F)CCOc2ccccc2C1=O` [Example Compound 16, 2,4-Difluorophenylcarbamic acid 4-(2,4-difluorophenylcarbamoyloxymethyl)-5-oxo-2,3,4,5-tetrahydrobenzo[b]oxepin-4-ylmethyl ester] gave an inhibition at 10 µM on human CB2 receptor of 63.4%.

Turning to `O=C1c2ccccc2SCCC1(CO)COC(=S)Nc1cccc(C(F)(F)F)c1` (stereo not drawn) [Example Compound 17, (3-Trifluoromethylphenyl)thiocarbamic acid O-(4-hydroxymethyl-5-oxo-2,3,4,5-tetrahydrobenzo[b]thiepin-4-ylmethyl)ester], the results for the inhibition at 10 µM (in assay [1]; on human CB2 receptor; at vanilloid receptor (VR1)) were 46.6%, 3.8% and 17.1%, respectively.

With `O=C1c2ccccc2OCCC1(CO)COC(=S)Nc1cccc(C(F)(F)F)c1` (stereo not drawn) [Example Compound 18, (3-Trifluoromethylphenyl)thiocarbamic acid O-(4-hydroxymethyl-5-oxo-2,3,4,5-tetrahydrobenzo[b]oxepin-4-ylmethyl)ester], the figures for the inhibition at 10 µM (in assay [1]; at human CB2 receptor; at vanilloid receptor (VR1)) were 52.1%, 15.6% and 31.5%, respectively.

Turning to `O=C(NC(=O)c1ccccc1)OCC1(COC(=O)NC(=O)c2ccccc2)CCOc2ccccc2C1=O` [Example Compound 19, Benzoylcarbamic acid 4-benzoylcarbamoyloxymethyl-5-oxo-2,3,4,5-tetrahydro-benzo[b]oxepin-4-ylmethyl ester], the inhibition at 10 µM in assay [1] is 32.2%; at human CB2 receptor it was 40.3%; at vanilloid receptor (VR1), 13.3%.

For the molecule `O=C1c2ccccc2SCCC1(CO)COC(=S)Nc1ccc(F)cc1F` (stereo not drawn) [Example Compound 21, (2,4-Difluorophenyl)thiocarbamic acid O-(4-hydroxymethyl-5-oxo-2,3,4,5-tetrahydrobenzo[b]thiepin-4-ylmethyl)ester], the inhibition at 10 µM in assay [1] amounted to 34.6%; at vanilloid receptor (VR1), 36.3%.

For the molecule `O=C1c2ccccc2CCCC1(CO)COC(=S)Nc1cccc(C(F)(F)F)c1` (stereo not drawn) [Example Compound 22, (3-Trifluoromethylphenyl)thiocarbamic acid O-(6-hydroxymethyl-5-oxo-6,7,8,9-tetrahydro-5H-benzocyclohepten-6-ylmethyl)ester], the “VR1 (rat) (% stimulation compared to 10 μM CP)” value in assay [1] (Ca2+ signal relative to 10 μM capsaicin (CP)) stood at 77.9%. In addition, the results for the inhibition at 10 µM (in assay [1]; at vanilloid receptor (VR1)) were 59.7% and 67.5%, respectively.
